How the values were obtained:
[1] = tested on: Normal mammary gland epithelial cell line MCF-10A; assay: Growth assay on normal mammary gland epithelial cells MCF-10A; format: cell-based; conditions: MCF-10A, 10 μM each peptide, 24 hours
Description: (§1) Growth assay on MCF-7 was carried out by seeding cells into 48-well plates (2×10^4 cells/200 μL). First, on the next day after seeding, the medium was changed to phenol red-free DMEM/F12 (Thermo Fisher Scientific) supplemented with 10% FBS, 1% Antibiotic/Antimycotic solution, 0.1 mM NEAA, 1 mM sodium pyruvate, and 10 μg/mL insulin. 24 hours later, the cells were treated with 10 nM 17β-estradiol (estrogen, Sigma) alone or with 10 nM estrogen and a PHB2 sequence-derived peptide. Growth assay on MCF-10A was carried out by seeding cells into 48-well plates (2×10^4 cells/200 μL). 24 hours after seeding, PHB2 sequence-derived peptide was added. Growth assays were carried out using the Cell Counting Kit-8 (CCK-8) (Dojindo, Kumamoto, Japan). The data are shown by mean±standard deviation of three independent experiments.

[2] = tested on: PHB2 (Ser39) phosphorylation; assay: Ser39 phosphorylation of PHB2 in MCF-7 by Western blotting; format: cell-based, Human; conditions: MCF-7, 10 μM each peptide, 10 nM estrogen, 24 hours (FIG. 2C)
Description: (§2) For immunoblot analyses, after performing SDS-PAGE, the membranes blotted with proteins were blocked with 4% BlockAce solution (Dainippon Pharmaceutical, Osaka, Japan) for 3 hours and then incubated to react for 12 hours with antibodies against BIG3 (1:1,000), PHB2 (1:1,000) (Abcam, Cambridge, UK) and phosphorylated PHB2 (Ser39, Scrum, Tokyo, Japan). After allowing interaction with HRP-labeled secondary antibodies (anti-rat IgG-HRP for BIG3, 1:5,000; and anti-rabbit IgG-HRP for PHB2 and phosphorylated PHB2, 1:1,000) (Santa Cruz Biotechnology, Dallas, TX, USA) for 1 hour, the blots were developed with the Enhanced Chemiluminescence (ECL) system (GE Healthcare, Buckinghamshire, UK) and scanned using the Image Reader LAS-3000 mini (Fujifilm, Tokyo, Japan).

[3] = tested on: Human breast cancer cell line MCF-7; assay: Estrogen (E2)-dependent growth assay on MCF-7; format: cell-based; conditions: MCF-7, 10 μM each peptide, 10 nM estrogen, 24 hours
Description: as §1
PHB2 peptides 11-21aa and 76-88aa were cross-linked by three types of cross-linking methods (FIG. 10A: hexafluorobenzene cross-linking, decafluorobiphenyl cross-linking, and disulfide cross-linking) to prepare cross-linked PHB2 peptides (stapled PHB2 peptides) (FIG. 10B), and the suppressive effects of these peptides on estrogen-dependent growth were examined. In the experiment, breast cancer cells MCF-7 were seeded, 10 μM each PHB2 peptide and 10 nM estrogen were added after 48 hours, and the cell number was evaluated after another 24 hours by MTT assay.

[4] = tested on: Human breast cancer cell line MDA-MB-231; conditions: 96 h
Description: MDA-MB-231 cells were seeded into 48-well plates at a cell density of 1×10^4 cells/200 μL in well. […] Data were obtained from three independent experiments, a graph (mean±standard deviation) was produced using a graphing and data analyzing software SigmaPlot (Systat Software, San Jose, CA, USA), and the 50% inhibition concentration (IC50) of the peptide against cell growth was calculated.

[5] = tested on: Human breast cancer cell line MCF-7; assay: Estrogen (E2)-dependent growth assay on MCF-7; format: cell-based; conditions: MCF-7, 10 μM peptide alone, 10 nM estrogen, after 96 hours
[6] = tested on: Human breast cancer cell line MDA-MB-231; assay: Combination assay on MDA-MB-231; format: cell-based; conditions: MDA-MB-231, each peptide at respective IC50, 96 hours
Description: MDA-MB-231 cells were seeded into 48-well plates at a cell density of 1×10^4 cells/200 μL in well. 48 hours later, the medium in each well was exchanged to media supplemented with PHB2 peptide 11-22aa (added concentration: IC50 value), PHB2 peptide 76-90aa (added concentration: IC50 value) and a mixed solution of both peptides (added concentration: respective IC50 value), respectively, or to a medium supplemented with phosphate buffered saline (PBS) as a negative control. After culture for another 96 hours, the cell growth level was measured using the Cell Counting Kit-8 (Dojindo, Kumamoto, Japan). The data obtained was used to calculate relative values based on the growth level when PBS was added, and the graph was produced.

[7] = molecular target: T1, interaction between BIG3 and PHB2 (Homo sapiens, UniProt Q5TH69); assay: Inhibition of BIG3-PHB2 binding in MCF-7, immunoprecipitation with anti-BIG3 antibody and Western blotting; format: cell-based; conditions: MCF-7 (FIG. 3B)
T1 construct: endogenous in cells; host or cells: MCF-7 (human breast cancer cell line)
Description: as §2
For immunoprecipitation, MCF-7 was seeded into 10 cm dishes (2×10^6 cells/10 mL), and like cell growth assay, MCF-7 was treated with 10 nM estrogen alone or with 10 nM estrogen and PHB2 sequence-derived peptide. For immunoprecipitation analysis, cell lysates lysed in a cell lysis buffer (50 mM Tris-HCl; pH 8.0, 150 mM NaCl, 0.1% NP-40, and 0.5% CHAPS; 0.1% protease inhibitor cocktail III) were pre-cleared with a rat IgG antibody and rec-Protein G Sepharose 4B (Thermo Fisher Scientific) at 4° C. for 3 hours. Then, the supernatants were incubated for reaction with 5 μg of an antibody against BIG3 at 4° C. for 12 hours. […]

T1 sequence (Q5TH69 whole entry): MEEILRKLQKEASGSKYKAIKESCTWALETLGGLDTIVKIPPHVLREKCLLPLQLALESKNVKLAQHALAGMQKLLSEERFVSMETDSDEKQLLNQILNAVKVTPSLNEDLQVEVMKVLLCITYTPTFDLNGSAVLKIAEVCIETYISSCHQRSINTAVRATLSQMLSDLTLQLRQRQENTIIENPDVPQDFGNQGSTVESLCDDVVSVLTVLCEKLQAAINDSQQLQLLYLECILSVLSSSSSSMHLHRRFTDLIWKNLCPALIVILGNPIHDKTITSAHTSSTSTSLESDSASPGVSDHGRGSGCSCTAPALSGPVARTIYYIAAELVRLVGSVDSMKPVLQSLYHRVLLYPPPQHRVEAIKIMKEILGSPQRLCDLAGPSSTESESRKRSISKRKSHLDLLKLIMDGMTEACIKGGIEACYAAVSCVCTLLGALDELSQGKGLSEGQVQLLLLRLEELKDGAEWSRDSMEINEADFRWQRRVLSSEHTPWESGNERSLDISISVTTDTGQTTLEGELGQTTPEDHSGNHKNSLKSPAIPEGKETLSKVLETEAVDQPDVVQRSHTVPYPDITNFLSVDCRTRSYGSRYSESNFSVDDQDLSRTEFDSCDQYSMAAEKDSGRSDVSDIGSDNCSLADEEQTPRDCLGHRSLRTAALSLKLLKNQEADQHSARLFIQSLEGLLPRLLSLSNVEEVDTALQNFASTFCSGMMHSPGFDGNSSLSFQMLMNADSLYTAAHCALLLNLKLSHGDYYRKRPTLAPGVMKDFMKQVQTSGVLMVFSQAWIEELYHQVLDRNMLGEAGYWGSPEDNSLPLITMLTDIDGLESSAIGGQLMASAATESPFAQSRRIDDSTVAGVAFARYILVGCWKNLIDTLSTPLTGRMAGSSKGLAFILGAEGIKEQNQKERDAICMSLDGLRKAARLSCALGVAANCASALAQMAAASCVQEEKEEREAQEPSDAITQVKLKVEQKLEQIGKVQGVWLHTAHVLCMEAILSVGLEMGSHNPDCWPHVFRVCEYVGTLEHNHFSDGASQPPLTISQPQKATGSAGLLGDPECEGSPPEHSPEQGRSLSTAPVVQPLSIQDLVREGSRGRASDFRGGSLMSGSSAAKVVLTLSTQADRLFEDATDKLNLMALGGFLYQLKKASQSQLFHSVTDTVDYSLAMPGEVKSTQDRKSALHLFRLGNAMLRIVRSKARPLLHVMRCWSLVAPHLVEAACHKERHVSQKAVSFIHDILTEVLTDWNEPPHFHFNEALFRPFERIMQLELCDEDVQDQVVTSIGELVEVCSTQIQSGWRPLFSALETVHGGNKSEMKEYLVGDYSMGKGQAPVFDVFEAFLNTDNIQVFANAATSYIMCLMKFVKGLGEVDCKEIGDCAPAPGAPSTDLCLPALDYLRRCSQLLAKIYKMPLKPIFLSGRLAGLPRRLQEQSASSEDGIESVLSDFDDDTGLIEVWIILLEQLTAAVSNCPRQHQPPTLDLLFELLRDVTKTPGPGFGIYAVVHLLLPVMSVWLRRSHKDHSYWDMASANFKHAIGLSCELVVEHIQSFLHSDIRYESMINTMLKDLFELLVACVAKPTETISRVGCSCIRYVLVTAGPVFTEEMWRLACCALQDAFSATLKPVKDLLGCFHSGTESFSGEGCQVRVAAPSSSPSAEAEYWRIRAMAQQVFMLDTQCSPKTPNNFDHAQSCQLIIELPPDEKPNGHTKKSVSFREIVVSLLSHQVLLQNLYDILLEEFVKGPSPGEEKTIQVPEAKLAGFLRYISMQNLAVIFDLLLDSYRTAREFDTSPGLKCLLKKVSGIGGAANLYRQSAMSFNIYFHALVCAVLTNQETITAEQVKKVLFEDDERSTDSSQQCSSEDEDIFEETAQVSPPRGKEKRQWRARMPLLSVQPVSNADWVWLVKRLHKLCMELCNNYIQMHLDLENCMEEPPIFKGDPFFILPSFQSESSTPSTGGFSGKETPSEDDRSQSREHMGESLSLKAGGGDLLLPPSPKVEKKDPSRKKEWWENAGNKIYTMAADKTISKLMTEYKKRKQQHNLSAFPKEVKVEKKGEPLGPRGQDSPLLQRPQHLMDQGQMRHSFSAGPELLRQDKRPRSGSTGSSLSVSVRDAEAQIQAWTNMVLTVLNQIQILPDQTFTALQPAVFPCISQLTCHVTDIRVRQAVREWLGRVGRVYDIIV

CSCC[C@H](NC(=O)CNC(=O)[C@H](CCCNC(=N)N)NC(=O)[C@@H]1CCCN1C(=O)CNC(=O)[C@H](C)NC(=O)[C@@H]1CCCN1C(=O)[C@H](CC(C)C)NC(=O)[C@@H](N)CCCNC(=N)N)C(=O)NCC(=O)N[C@H](C(=O)N[C@@H](C)C(=O)N[C@@H](CCCNC(=N)N)C(=O)N[C@@H](CCCNC(=N)N)C(=O)N[C@@H](CCCNC(=N)N)C(=O)N[C@@H](CCCNC(=N)N)C(=O)N[C@@H](CCCNC(=N)N)C(=O)N[C@@H](CCCNC(=N)N)C(=O)N[C@@H](CCCNC(=N)N)C(=O)N[C@@H](CCCNC(=N)N)C(=O)O)[C@@H](C)O [No. 1]
inhibition ratio of MCF-10A growth [1]: no effect on growth | band intensity of Ser39 phosphorylation of PHB2 compared to ERAP treatment [2]: 40% | suppression ratio of E2-dependent growth ([3]; listed as 11-22aa): 40% | suppression ratio of E2-dependent growth ([3]; listed as PHB2 (11-22aa)): 63% | suppression ratio of E2-dependent growth ([3]; listed as SEQ ID NO: 1): about 65% | IC50 [4]: 462 nM | suppression ratio of E2-dependent growth [5]: 31% | suppression of growth compared to PBS [6]: about 50%

CC[C@H](C)[C@H](NC(=O)[C@H](CC(=O)O)NC(=O)[C@H](Cc1ccc(O)cc1)NC(=O)[C@@H](NC(=O)[C@@H](NC(=O)[C@@H]1CCCN1C(=O)[C@H](Cc1ccc(O)cc1)NC(=O)[C@@H](N)CCC(N)=O)[C@@H](C)CC)[C@@H](C)CC)C(=O)N[C@@H](CCCNC(=N)N)C(=O)N[C@@H](C)C(=O)N[C@@H](CCCNC(=N)N)C(=O)N1CCC[C@H]1C(=O)N[C@@H](CCCNC(=N)N)C(=O)N[C@@H](CCCCN)C(=O)N[C@H](C(=O)N[C@@H](CCCNC(=N)N)C(=O)N[C@@H](CCCNC(=N)N)C(=O)N[C@@H](CCCNC(=N)N)C(=O)N[C@@H](CCCNC(=N)N)C(=O)N[C@@H](CCCNC(=N)N)C(=O)N[C@@H](CCCNC(=N)N)C(=O)N[C@@H](CCCNC(=N)N)C(=O)N[C@@H](CCCNC(=N)N)C(=O)O)[C@@H](C)CC [No. 5]
inhibition ratio of MCF-10A growth [1]: no effect on growth | band intensity of Ser39 phosphorylation of PHB2 compared to ERAP treatment [2]: 20% | suppression ratio of E2-dependent growth ([3]; listed as 76-90aa): 61% | suppression ratio of E2-dependent growth ([3]; listed as PHB2 (76-90aa)): 51% | IC50 [4]: 273 nM | suppression ratio of E2-dependent growth [5]: 24% | suppression of growth compared to PBS [6]: about 50%

B1: 11-90aa: PHB2 peptide of 11-90aa comprising the two regions of No. 1 and No. 5; 80 amino acids (peptide)
chain: RLPAGPRGMGTALKLLLGAGAVAYGVRESVFTVEGGHRAIFFNRIGGVQQDTILAEGLHFRIPWFQYPIIYDIRARPRKI
modifications: PHB2 derived peptide 11-90aa
notes: PHB2 peptide of 11-90aa comprising the two regions of No. 1 and No. 5; 80 amino acids
inhibition of the binding between BIG3 and PHB2 [7]: did not provide a sufficient effect of inhibiting the binding

— patent publication US12595289B2, “Therapeutic agent for breast cancer comprising BIG3-PHB2 interaction-inhibiting peptide derived from PHB2” (TOKUSHIMA UNIVERSITY, priority 2018, dated 2026)
